Columns and labels:
[1] = NOVARTIS: Cytotoxicity against human hepatocellular carcinoma cell line (Huh7); format: toxicity, cell-based, Huh-7; details: Huh7 cells (hepatocellular carcinoma cell line)
[2] = tested on: Plasmodium falciparum; assay: NOVARTIS: Inhibition of Plasmodium falciparum W2 (drug-resistant) proliferation in erythrocyte-based infection assay; format: functional, organism-based; details: Plasmodium falciparum, W2; read-out: EC50
[3] = tested on: Plasmodium falciparum; assay: NOVARTIS: Inhibition of Plasmodium falciparum 3D7 (drug-susceptible) proliferation in erythrocyte-based infection assay; format: functional, organism-based; details: Plasmodium falciparum, 3D7

SMILES	CC50 [1] [nM]	EC50 [2] [nM]	EC50 [3] [nM]
CS/C(Cl)=C(/NC(C)=O)[P+](c1ccccc1)(c1ccccc1)c1ccccc1.[O-][Cl+3]([O-])([O-])[O-]	> 10000	100	115
CCCC[C@@H](C)[C@@H](O)[C@H]1C(=O)N[C@@H](C(C)C)C(=O)N(C)[C@H](SC)C(=O)N(C)[C@@H](CC(C)C)C(=O)N[C@@H](C(C)C)C(=O)N(C)[C@@H](CC(C)C)C(=O)N[C@@H](C)C(=O)N[C@H](C)C(=O)N(C)[C@@H](CC(C)C)C(=O)N(C)[C@@H](CC(C)C)C(=O)N(C)[C@@H](C(C)C)C(=O)N1C	5180	51.7	32.5
CCN1/C(=C/c2sc3cc(OC)c(OC)cc3[n+]2CC)C=Cc2ccccc21	> 10000	104	136
O=C1c2cc([N+](=O)[O-])ccc2-n2c1nc1ccccc1c2=O	> 10000	100	148
CCOC(=O)c1[nH]c2ccccc2c1N=NN(C)C	36100	376	128
Cc1ccc(NC(=S)NCCO)cc1C	> 100000	1020	1810
COc1ccc(C=Cc2cc[n+](C)cc2)cc1OC	> 100000	1010	1820
NCCCNC(=O)COC(c1ccccc1)c1cccnc1Cl (configuration not stated)	> 10000	100	81.7
O=C(c1ccc([N+](=O)[O-])o1)N1CCN(c2cccc(Cl)c2)CC1	> 100000	1040	6330
COc1cc(C=NNC(=O)c2ccc(C(=O)NN=Cc3ccc(O)c(OC)c3)cc2)ccc1O	> 100000	1030	652
CN1CCN(c2nc(NN=Cc3cc(Br)c(O)cc3O)nc(Nc3ccc([N+](=O)[O-])cc3)n2)CC1	> 10000	104	321
CCOC(=O)c1c(NC(=O)c2ccc([N+](=O)[O-])cc2[N+](=O)[O-])sc2c1CCCC2	> 100000	1040	> 12500
Cc1c(-c2ccc(Cl)cc2)[n+]2c(n1-c1ccccc1)SCCC2	> 100000	1040	1150
CC(Cl)=CC[N+]1(CC#Cc2cccc3ccccc23)CCOCC1	> 100000	1000	1160
CCCN1CCc2c(sc3nc(SCC(=O)c4ccccc4)nc(N)c23)C1	> 100000	1010	1420
CCOC(=O)C1=C(C)NC2=C(C(=O)C(C(=O)OCC)C(c3ccccc3OC)C2)C1c1ccc(Cl)cc1 (configuration not stated)	> 100000	1000	5420
Cc1cc(Nc2ccc(Cl)c(C)c2)n2nc(C)nc2n1	> 100000	1000	983
CN1CC=C(/C=C/c2c[nH]c3ccccc23)CC1	> 10000	100	483
COc1cc(NC(C)=C2C(=O)c3ccccc3C2=O)c(OC)cc1Cl	> 100000	1040	2400
CCCCN(CC(=O)Nc1cc(C(C)(C)C)nn1-c1ccc(Cl)cc1)C(=O)c1ccc(OC)cc1	5080	52.7	> 1390
O=C(COc1cccc2ccccc12)NC1CCS(=O)(=O)C1 (configuration not stated)	> 100000	1000	> 12500
O=C(Nc1ccc(C2=NCCN2)c(Cl)c1)c1cccc(C(=O)Nc2ccc(C3=NCCN3)c(Cl)c2)c1	> 10000	103	307
COC(=O)c1cccc(-c2cc(Cl)c3c(c2)CC(CNC(=O)c2c(C)noc2C)O3)c1 (configuration not stated)	75900	786	881
CC(C)(C)CC(C)(C)Nc1c(-c2ccccc2OC(=O)C2CCC2)nc2ccccn12	> 10000	104	729
OC(CCN1CCN(C(c2ccccc2)c2ccccc2)CC1)c1ccccc1 (configuration not stated)	> 100000	1030	4650

SMILES	CC50 [1] [nM]	EC50 [2] [nM]	EC50 [3] [nM]
COc1ccc(S(=O)(=O)N2CCN(C(=S)NC3CCCCC3)CC2)cc1	> 100000	1000	8540
CN(C)c1nnc(C(C#N)=Cc2cc(C(=O)c3cccc(Cl)c3)cn2C)o1	> 100000	1030	> 12500
CNC1=C(N(Cc2ccc(Cl)c(Cl)c2)C(C)=O)C(=O)c2ccccc2C1=O	126	1.26	1.23
COc1cc(NC(C)CCCN(Cc2ccc(OC)c(OC)c2)C(=O)c2ccccc2)c2ncccc2c1 (configuration not stated)	> 10000	103	529
Cc1ccnc(Nc2nc(-c3c(C)nc4sccn34)cs2)c1	> 73400	753	1500
CC(CN1CCC(n2cc(C(=O)N3CCCC3)nn2)CC1)c1ccccc1 (configuration not stated)	> 100000	1020	2410
Cc1cccc(NS(=O)(=O)c2ccc3[nH]c(=O)ccc3c2)c1C	81800	838	> 12500
Cc1ccc(Cn2c(=N)n(CC(O)c3ccc(Cl)c(Cl)c3)c3ccccc32)cc1 (configuration not stated)	6000	61.3	107
O[C@@]1(c2cc3ccccc3s2)CN2CCC1CC2	> 10000	101	177
CCCCOc1cccc(C(=O)N(Cc2cccs2)c2ccc(OC)cc2)c1	6130	62.1	124
O=C(C=Cc1ccccc1)NNC(=O)c1cccnc1	> 100000	1010	> 12500
CCc1ccc(C(=O)C[n+]2cc(-c3ccc(C)cc3)n3c2CCC3)cc1	32700	333	764
N#CC(=Cc1cn(Cc2ccc(Cl)cc2Cl)c2ccccc12)c1nc2ccccc2[nH]1	> 100000	1020	270
CC[n+]1c(/C=C/c2ccc(SC)cc2)ccc2ccccc21	> 10000	102	43.6
CN(C)CCN(C)Cc1cc(Br)cs1	> 100000	1010	> 2340
CN1CCCC1CCNCc1cc(-c2ccnc3cc(Cl)ccc23)ccc1O (configuration not stated)	15200	153	31.4
CCN(CC)CCCN(Cc1cc2c(C)cc(C)cc2[nH]c1=O)C(=S)NCCCN(C)C	> 100000	1000	2090
CN1CCCC1CCNc1ncc(C(=O)NCc2ccccc2)c(NCC2CCCCC2)n1 (configuration not stated)	> 10000	100	54.4
OC(CNCC1COc2ccccc2O1)c1ccccc1 (configuration not stated)	> 100000	1000	> 12200
O=C(CCl)Nc1ccc(N2CCCCC2)cc1	41200	417	797
Oc1ccccc1-c1nc2ncccn2c1Nc1cccc(C(F)(F)F)c1	> 100000	1020	2120
O=c1c2sccc2nc(SCc2cccc([N+](=O)[O-])c2)n1-c1ccc(Br)cc1	> 100000	1020	3310
COc1ccc(-c2c[n+](Cc3ccccc3Cl)c3n2CCC3)cc1	52500	532	578
COc1ccc(S(=O)(=O)N=C2C=C(Nc3ccccc3)C(=O)c3ccccc32)cc1	12000	122	93.3

Reference: ChEMBL document CHEMBL1156829 (Proc Natl Acad Sci U S A, 2008)
